The results in this text go back to patent US12251374B2, “Fampridine TTS” (LTS Lohmann Therapie-Systeme AG, priority 2017, dated 2025).

Data set [1] can be described thus: Solubility of fampridine base in organic solvents. The format is physicochemical. The protocol: Since toluene polysiloxane solution is not commercially obtainable, BIO PSA 4201 from Dow Chemicals (polysiloxane in n-heptane) was used as starting material. The solvent was evaporated and the rubber-like polymer residue was dissolved with so much toluene that a solution with approximately 75% solids was obtained.

A short description of data set [2]: Saturation concentration Cs of fampridine in polymer matrices ("sandwich" method by Liu). As to conditions: for Cs of fampridine: 7 days at room temperature. The format is physicochemical. The protocol: The saturation concentration Cs of […] determined in various polymer matrices by the method described by Liu. (Liu, P., Gargiulo, P., Wong, J., and Novartis (1997). A Novel Method for Measuring Solubility of a Drug in an Adhesive, Pharmaceutical Research 14, page 317). In this method, known by specialists as the “sandwich” method, the saturation concentration is determined as follows: A laminate is constructed, having the following layer sequence: protective film-donor layer with active ingredient (dissolved and undissolved)-active ingredient-permeable membrane-acceptor layer without active ingredient-protective film. The two protective films are made of identical material; the matrix material of the donor and of the acceptor layer is likewise identical. The donor layer is produced by dissolving the active ingredient in a solution of the polymer in organic solvent. The concentration of the active ingredient must be selected to be high enough that an undissolved residue can be identified in the polymer matrix so that the saturation concentration Cs in the donor layer is reliably exceeded. This solution is applied to the protective film, and the process solvent is evaporated. The adhesive surface of the donor layer is then covered with the membrane. A dialysis tube made of regenerated cellulose (ZelluTrans®, from Roth, 46 mm flat width) that has been cut to size in the longitudinal direction is used as membrane. The acceptor layer is produced without active ingredient, similarly to the donor layer, and the membrane is applied to the other side. The laminates thus produced are then stored for 7 days at room temperature, during which time the active ingredient diffuses through the membrane into the acceptor layer. The active ingredient concentration in the […] is then determined. To this end, aliquots of approximately 1 cm^2 are punched out using a punching tool of standardised area. The membrane is then removed, the punched blanks without membrane are weighed, and their weight is recorded (m1). The punched blanks are then placed in organic solvent so as to remove the matrices. The backing layers are removed, washed, and dried, and their weight (m2) is determined. […] The concentration of […] solution is then calculated using an HPLC method, and its concentration in the […] is calculated. The saturation concentrations of […] different polymer matrices determined on the basis of this test approach are summarised in Table 1: […]

Consider `Nc1ccncc1` [fampridine, 4-aminopyridine], for which the results for the Solubility entry in data set [1] (in aromatic hydrocarbons) and in data set [1] (in n-heptane) were “sufficiently soluble” and “not”, respectively. In data set [2] (in acidic polymers vs neutral polymers), the “saturation concentration Cs relative to neutral polymers” value is given as “approximately 3 times higher”. The Cs of fampridine amounted to 7.4% in data set [2] (in acrylate copolymer of 2-ethylhexylacrylate, butyl acrylate, vinyl acetate, acrylic acid, ethyl acetate); 3.3% in data set [2] (in acrylate copolymer of 2-ethylhexylacrylate, vinyl acetate and 2-hydroxyethyl acrylate, ethyl acetate); 2.2% in data set [2] (in polyisobutylene, polymer dissolved in toluene); 0.3% in data set [2] (in polysiloxane, ethyl acetate); 2.7% in data set [2] (in styrene-isoprene-styrene block copolymer, polymer dissolved in toluene). Besides, the “saturation concentration Cs of fampridine” value in data set [2] (in neutral polymers (summary of Table 1)) is “approximately 3%”. Further, the “Cs of fampridine (in words)” value in data set [2] (in polysiloxane) was “especially low”.
